Experimental data: article PMC7391767, “Molecular mechanisms underlying menthol binding and activation of TRPM8 ion channel” (Nature Communications, 2020)
Values joined by “and” are separate entries in the source; they are usually repeats but may differ in a detail not shown here. Equal entries are not always repeated.

How the values were obtained:
ANAP-incorporated TRPM8 [1] = molecular target: T1, ANAP-incorporated TRPM8 (Mus musculus, UniProt Q8R4D5, N947X); assay type: cell-based; conditions: ANAP incorporation site N947
T1 construct: expressed in transfected cells; host or cells: HEK293 cells, co-transfected with the pANAP vector

ANAP-incorporated TRPM8 [2] = molecular target: T2, ANAP-incorporated TRPM8 (Mus musculus, UniProt Q8R4D5, V876X); assay type: cell-based; conditions: ANAP incorporation site V876
T2 construct: expressed in transfected cells; host or cells: HEK293 cells, co-transfected with the pANAP vector

[3] = average shift, menthol activated vs resting state

`CC(C)[C@@H]1CC[C@@H](C)C[C@H]1O` [menthol, (−)-menthol] was tested, and the Shifts_ave (ANAP-incorporated TRPM8 [1]; [3]) was 0.33 nm, the “Emission Peak at menthol activated state” value (ANAP-incorporated TRPM8 [1]; single measurement) was 485.99 nm and 482.4 nm and 486.05 nm and 485.2 nm and 481.1 nm and the Shifts_ave (ANAP-incorporated TRPM8 [2]; [3]) was 0.71 nm. For the same compound, the “Emission Peak at menthol activated state” value (ANAP-incorporated TRPM8 [2]; single measurement) was 481.62 nm and 479.21 nm and 478.64 nm and 484.51 nm and 491.43 nm.
